System: 935938-334-R-J1-PDC spheroids with HUVEC/MSC, viability
Assay: Anticancer human tumor 935938-334-R-J1-PDC patient-derived small intestine adenocarcinoma cell line growth inhibition [PI3K]
Details: for IC50: curve of first compound; for viability, T/C: stronger effect = lower value
Outline: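 Multi-cell spheroids combine tumor cells with HUVEC and human MSCs, treated with targeted agents alone or with inavolisib, alpelisib, duvelisib or copanlisib. Concentrations fall in half-log steps from at or near clinical Cmax, or from 10 microM where Cmax is unknown; viability read-out.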

[1] = second compound 0.0316 µM, first compound 0.0316 µM
[2] = second compound 0.0316 µM, first compound 0.1 µM
[3] = second compound 0.1 µM, first compound 0.0316 µM
[4] = second compound 0.1 µM, first compound 0.1 µM
[5] = second compound 0.316 µM, first compound 0.0316 µM
[6] = second compound 0.316 µM, first compound 0.1 µM
[7] = second compound 1 µM, first compound 0.0316 µM
[8] = second compound 1 µM, first compound 0.1 µM
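Also: compound exposure lasted seven days before viability was read.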
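For viability, T/C in this document: percent of vehicle DMSO treated spheroid viability so 100% = untreated.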

SMILES: CC(=O)c1c(C)c2cnc(Nc3ccc(N4CCNCC4)cn3)nc2n(C2CCCC2)c1=O + CC(Nc1ncnc2nc[nH]c12)c1cc2cccc(Cl)c2c(=O)n1-c1ccccc1
- IC50 (second compound 0.0316 µM): > 100 nM
- IC50 (second compound 0.1 µM): > 100 nM
- IC50 (second compound 0.316 µM): > 100 nM
- IC50 (second compound 1 µM): > 100 nM
- IC50 (second compound 3.16 µM): 79.4 nM
- IC50 (second compound 10 µM): 49 nM
- viability, T/C (second compound 0.0316 µM, first compound 0.000316 µM): 105%
- viability, T/C (second compound 0.0316 µM, first compound 0.001 µM): 108%
- viability, T/C (second compound 0.0316 µM, first compound 0.00316 µM): 99%
- viability, T/C (second compound 0.0316 µM, first compound 0.01 µM): 97.2%
- viability, T/C [1]: 90%
- viability, T/C [2]: 73%
- viability, T/C (second compound 0.1 µM, first compound 0.000316 µM): 103%
- viability, T/C (second compound 0.1 µM, first compound 0.001 µM): 103%
- viability, T/C (second compound 0.1 µM, first compound 0.00316 µM): 93%
- viability, T/C (second compound 0.1 µM, first compound 0.01 µM): 69.5%
- viability, T/C [3]: 91.5%
- viability, T/C [4]: 74.6%
- viability, T/C (second compound 0.316 µM, first compound 0.000316 µM): 68.6%
- viability, T/C (second compound 0.316 µM, first compound 0.001 µM): 91.2%
- viability, T/C (second compound 0.316 µM, first compound 0.00316 µM): 105%
- viability, T/C (second compound 0.316 µM, first compound 0.01 µM): 89.7%
- viability, T/C [5]: 71.6%
- viability, T/C [6]: 64.9%
- viability, T/C (second compound 1 µM, first compound 0.000316 µM): 99.8%
- viability, T/C (second compound 1 µM, first compound 0.001 µM): 109%
- viability, T/C (second compound 1 µM, first compound 0.00316 µM): 93%
- viability, T/C (second compound 1 µM, first compound 0.01 µM): 88.5%
- viability, T/C [7]: 69.5%
- viability, T/C [8]: 53.4%
- viability, T/C (second compound 3.16 µM, first compound 0.000316 µM): 96.7%
- viability, T/C (second compound 3.16 µM, first compound 0.001 µM): 111%
- viability, T/C (second compound 3.16 µM, first compound 0.00316 µM): 97.6%
- viability, T/C (second compound 3.16 µM, first compound 0.01 µM): 86.3%
- viability, T/C (second compound 3.16 µM, first compound 0.0316 µM): 73.5%
- viability, T/C (second compound 3.16 µM, first compound 0.1 µM): 44.1%
- viability, T/C (second compound 10 µM, first compound 0.000316 µM): 87.1%
- viability, T/C (second compound 10 µM, first compound 0.001 µM): 83.7%
- viability, T/C (second compound 10 µM, first compound 0.00316 µM): 78.4%
- viability, T/C (second compound 10 µM, first compound 0.01 µM): 67.1%
- viability, T/C (second compound 10 µM, first compound 0.0316 µM): 56.7%
- viability, T/C (second compound 10 µM, first compound 0.1 µM): 40.2%

SMILES: Cc1nc(NC(=O)N2CCCC2C(N)=O)sc1-c1ccnc(C(C)(C)C(F)(F)F)c1 (centres undefined)
- viability, T/C (compound 1 µM): 72.2% [middle of 8 runs]
- viability, T/C (compound 10 µM): 48.2% [middle of 8 runs]

SMILES: C=CC(=O)N1CCN(c2nc(=O)n(-c3c(C)ccnc3C(C)C)c3nc(-c4c(O)cccc4F)c(F)cc23)C(C)C1 (centres undefined) + CC(Nc1ccc2c(c1)OCCn1cc(N3C(=O)OCC3C(F)F)nc1-2)C(N)=O
- IC50 (second compound 0.00316 µM): > 10000 nM
- IC50 (second compound 0.01 µM): > 10000 nM
- IC50 (second compound 0.0316 µM): > 10000 nM
- IC50 (second compound 0.1 µM): > 10000 nM
- IC50 (second compound 0.316 µM): > 10000 nM
- IC50 (second compound 1 µM): 8040 nM
- viability, T/C (second compound 0.00316 µM, first compound 0.0316 µM): 101%
- viability, T/C (second compound 0.00316 µM, first compound 0.1 µM): 99.6%
- viability, T/C (second compound 0.00316 µM, first compound 0.316 µM): 103%
- viability, T/C (second compound 0.00316 µM, first compound 1 µM): 99.3%
- viability, T/C (second compound 0.00316 µM, first compound 3.16 µM): 91%
- viability, T/C (second compound 0.00316 µM, first compound 10 µM): 106%
- viability, T/C (second compound 0.01 µM, first compound 0.0316 µM): 96.9%
- viability, T/C (second compound 0.01 µM, first compound 0.1 µM): 85%
- viability, T/C (second compound 0.01 µM, first compound 0.316 µM): 90.4%
- viability, T/C (second compound 0.01 µM, first compound 1 µM): 87.9%
- viability, T/C (second compound 0.01 µM, first compound 3.16 µM): 92.5%
- viability, T/C (second compound 0.01 µM, first compound 10 µM): 98.2%
- viability, T/C [1]: 134%
- viability, T/C [2]: 119%
- viability, T/C (second compound 0.0316 µM, first compound 0.316 µM): 101%
- viability, T/C (second compound 0.0316 µM, first compound 1 µM): 86%
- viability, T/C (second compound 0.0316 µM, first compound 3.16 µM): 85.8%
- viability, T/C (second compound 0.0316 µM, first compound 10 µM): 93.3%
- viability, T/C [3]: 88.4%
- viability, T/C [4]: 84.4%
- viability, T/C (second compound 0.1 µM, first compound 0.316 µM): 98.3%
- viability, T/C (second compound 0.1 µM, first compound 1 µM): 104%
- viability, T/C (second compound 0.1 µM, first compound 3.16 µM): 89.5%
- viability, T/C (second compound 0.1 µM, first compound 10 µM): 97.7%
- viability, T/C [5]: 80.9%
- viability, T/C [6]: 80.5%
- viability, T/C (second compound 0.316 µM, first compound 0.316 µM): 71%
- viability, T/C (second compound 0.316 µM, first compound 1 µM): 74.2%
- viability, T/C (second compound 0.316 µM, first compound 3.16 µM): 72.5%
- viability, T/C (second compound 0.316 µM, first compound 10 µM): 68.1%
- viability, T/C [7]: 86%
- viability, T/C [8]: 67.6%
- viability, T/C (second compound 1 µM, first compound 0.316 µM): 66.3%
- viability, T/C (second compound 1 µM, first compound 1 µM): 80.3%
- viability, T/C (second compound 1 µM, first compound 3.16 µM): 86.9%
- viability, T/C (second compound 1 µM, first compound 10 µM): 43.5%

SMILES: CC1(C)CCC(CN2CCN(c3ccc(C(=O)NS(=O)(=O)c4ccc(NCC5CCOCC5)c([N+](=O)[O-])c4)c(Oc4cnc5[nH]ccc5c4)c3)CC2)=C(c2ccc(Cl)cc2)C1
- viability, T/C (compound 0.0316 µM): 98.9% [middle of 4 runs]
- viability, T/C (compound 0.1 µM): 88.2% [middle of 4 runs]
- viability, T/C (compound 3.16 µM): 93.3% [middle of 4 runs]

— PubChem BioAssay AID1963966 (Molecular Pharmacology Branch, DTP, NCI, 2024)
